Our source for the relative viability values is the supplement of paper PMC10307832.

Compound in assay [1]: CC1=NN=C(O1)C2=NN=C(C=C2)N3CCC(CC3)OC4=C(C=CC(=C4)F)Cl + COc1cc2c(Oc3ccc(NC(=O)C4(C(=O)Nc5ccc(F)cc5)CC4)cc3F)ccnc2cc1OCCCN1CCOCC1 [Foretinib] (partner 0.25 µM)
As to the kind of experiment: relative viability (nuclei count vs DMSO), 5 days (fraction); higher = more cells survive. The essentials:
(§1)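 Nuclei were stained with Hoechst during a one-step fixation (final 0.05% Triton X-100, 1% formaldehyde, 1 ug/ml Hoechst) carried out 5 days after dosing, then counted on 4× images. The cells, lung cancer lines in 1536-well plates, had been dosed by pin tool the day after seeding with one drug alone or a fixed anchor-drug dose plus five library-drug doses (not always all listed) in √10 steps. Relative viability is the nuclei count in treated wells divided by that in vehicle wells, and each value is the median of duplicate plates.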

Compound in the assay “Tosedostat + Navitoclax”: CC(C)C[C@@H](C(=O)N[C@H](C(=O)OC1CCCC1)c1ccccc1)[C@H](O)C(=O)NO [Tosedostat] + CC1(C)CCC(c2ccc(Cl)cc2)=C(CN2CCN(c3ccc(C(=O)NS(=O)(=O)c4ccc(N[C@H](CCN5CCOCC5)CSc5ccccc5)c(S(=O)(=O)C(F)(F)F)c4)cc3)CC2)C1 [Navitoclax] (partner 0.5 µM)
The description is as above. The method, boiled down: as §1

As for NCI-H838, the relative viability came to 0.887 in assay [1] (first compound 0.253 µM); 0.83 in assay [1] (first compound 0.8 µM); 0.868 in assay [1] (first compound 2.53 µM); 0.88 in assay [1] (first compound 8 µM); 1.23 with Tosedostat + Navitoclax (first compound 0.02 µM); 1.16 in the assay with Tosedostat + Navitoclax (first compound 0.06325 µM). Also, the relative viability was 1.2 with Tosedostat + Navitoclax (first compound 0.2 µM), 1.33 with Tosedostat + Navitoclax (first compound 0.6325 µM) and 1.46 in the assay with Tosedostat + Navitoclax (first compound 2 µM).

As for NCI-H1666, the relative viability came out at 0.496 in assay [1] (first compound 0.253 µM); 0.47 in assay [1] (first compound 0.8 µM); 0.459 in assay [1] (first compound 2.53 µM); 0.412 in assay [1] (first compound 8 µM); 0.864 with Tosedostat + Navitoclax (first compound 0.02 µM); 0.946 with Tosedostat + Navitoclax (first compound 0.06325 µM). Moreover, the relative viability with Tosedostat + Navitoclax (first compound 0.2 µM) stood at 0.98; in the assay with Tosedostat + Navitoclax (first compound 0.6325 µM), 1.39; with Tosedostat + Navitoclax (first compound 2 µM) it was 1.05.

Consider NCI-H322M, for which the relative viability in assay [1] (first compound 0.253 µM) is 0.937; in assay [1] (first compound 0.8 µM), 0.908; in assay [1] (first compound 2.53 µM) it was 1.03; in assay [1] (first compound 8 µM) it was 0.95; with Tosedostat + Navitoclax (first compound 0.02 µM) it was 1.17; with Tosedostat + Navitoclax (first compound 0.06325 µM) it was 1.11. Besides, the relative viability with Tosedostat + Navitoclax (first compound 0.2 µM) amounted to 1.19; in the assay with Tosedostat + Navitoclax (first compound 0.6325 µM), 1.14; in the assay with Tosedostat + Navitoclax (first compound 2 µM), 1.02.

With A549, the relative viability in assay [1] (first compound 0.253 µM) turned out to be 0.746; in assay [1] (first compound 0.8 µM), 0.545; in assay [1] (first compound 2.53 µM), 0.464; in assay [1] (first compound 8 µM), 0.53; with Tosedostat + Navitoclax (first compound 0.02 µM) it was 1.37; with Tosedostat + Navitoclax (first compound 0.06325 µM), 1.15. Further, the results for the relative viability in the assay with Tosedostat + Navitoclax (first compound 0.2 µM), with Tosedostat + Navitoclax (first compound 0.6325 µM) and with Tosedostat + Navitoclax (first compound 2 µM) were 1.14, 1.19 and 1.01, respectively.

In the case of LCLC-97TM1, the relative viability in assay [1] (first compound 0.253 µM) is 0.481; in assay [1] (first compound 0.8 µM), 0.439; in assay [1] (first compound 2.53 µM), 0.433; in assay [1] (first compound 8 µM) it was 0.381; in the assay with Tosedostat + Navitoclax (first compound 0.02 µM) it was 0.559; with Tosedostat + Navitoclax (first compound 0.6325 µM) it was 0.633. Also, in the assay with Tosedostat + Navitoclax (first compound 2 µM), the relative viability is 0.293.

Take EPLC-272H: the relative viability in assay [1] (first compound 0.253 µM) is 0.713; in assay [1] (first compound 0.8 µM), 0.604; in assay [1] (first compound 2.53 µM) it was 0.638; in assay [1] (first compound 8 µM), 0.637; with Tosedostat + Navitoclax (first compound 0.02 µM) it was 1.19; with Tosedostat + Navitoclax (first compound 0.06325 µM), 1.3. For the same cell line, the relative viability in the assay with Tosedostat + Navitoclax (first compound 0.2 µM) came out at 0.826; with Tosedostat + Navitoclax (first compound 0.6325 µM) it was 0.775; with Tosedostat + Navitoclax (first compound 2 µM), 0.576.

On to NCI-H2023, for which the relative viability in assay [1] (first compound 0.253 µM) turned out to be 0.594; in assay [1] (first compound 0.8 µM) it was 0.613; in assay [1] (first compound 2.53 µM), 0.64; in assay [1] (first compound 8 µM), 0.619; with Tosedostat + Navitoclax (first compound 0.02 µM), 1.07; with Tosedostat + Navitoclax (first compound 0.06325 µM) it was 0.989. For the same cell line, the relative viability amounted to 1.05 with Tosedostat + Navitoclax (first compound 0.2 µM), 0.938 with Tosedostat + Navitoclax (first compound 0.6325 µM) and 0.923 in the assay with Tosedostat + Navitoclax (first compound 2 µM).

With NCI-H460, the relative viability in assay [1] (first compound 0.253 µM) stood at 0.282; in assay [1] (first compound 0.8 µM), 0.299; in assay [1] (first compound 2.53 µM), 0.273; in assay [1] (first compound 8 µM), 0.243; with Tosedostat + Navitoclax (first compound 0.02 µM), 1.38; in the assay with Tosedostat + Navitoclax (first compound 0.06325 µM) it was 1.18. The relative viability was 1.09 with Tosedostat + Navitoclax (first compound 0.2 µM), 0.891 in the assay with Tosedostat + Navitoclax (first compound 0.6325 µM) and 1.23 in the assay with Tosedostat + Navitoclax (first compound 2 µM).

As to NCI-H647, the relative viability in assay [1] (first compound 0.253 µM) turned out to be 0.565; in assay [1] (first compound 0.8 µM), 0.623; in assay [1] (first compound 2.53 µM), 0.586; in assay [1] (first compound 8 µM), 0.426; in the assay with Tosedostat + Navitoclax (first compound 0.02 µM), 1.25; with Tosedostat + Navitoclax (first compound 0.06325 µM), 1.22. The values for the relative viability with Tosedostat + Navitoclax (first compound 0.2 µM), with Tosedostat + Navitoclax (first compound 0.6325 µM) and in the assay with Tosedostat + Navitoclax (first compound 2 µM) were 0.936, 1.08 and 1.14, respectively.

With NCI-H2170, the relative viability in assay [1] (first compound 0.253 µM) is 0.466; in assay [1] (first compound 0.8 µM), 0.575; in assay [1] (first compound 2.53 µM) it was 0.583; in assay [1] (first compound 8 µM), 0.432; in the assay with Tosedostat + Navitoclax (first compound 0.02 µM), 0.654; with Tosedostat + Navitoclax (first compound 0.06325 µM), 0.586. Moreover, the relative viability in the assay with Tosedostat + Navitoclax (first compound 0.2 µM) was 0.572; with Tosedostat + Navitoclax (first compound 0.6325 µM) it was 0.533; with Tosedostat + Navitoclax (first compound 2 µM), 0.63.

Take NCI-H1395: the relative viability worked out at 0.939 in assay [1] (first compound 0.253 µM); 0.901 in assay [1] (first compound 0.8 µM); 0.969 in assay [1] (first compound 2.53 µM); 0.893 in assay [1] (first compound 8 µM); 1.06 with Tosedostat + Navitoclax (first compound 0.02 µM); 1.19 with Tosedostat + Navitoclax (first compound 0.06325 µM). Further, the relative viability in the assay with Tosedostat + Navitoclax (first compound 0.2 µM) came to 0.905; with Tosedostat + Navitoclax (first compound 0.6325 µM), 0.917; in the assay with Tosedostat + Navitoclax (first compound 2 µM), 0.886.

For IA-LM, the relative viability in assay [1] (first compound 0.253 µM) stood at 0.164; in assay [1] (first compound 0.8 µM), 0.158; in assay [1] (first compound 2.53 µM) it was 0.171; in assay [1] (first compound 8 µM), 0.167; in the assay with Tosedostat + Navitoclax (first compound 0.02 µM), 0.731; in the assay with Tosedostat + Navitoclax (first compound 0.06325 µM), 0.655. Further, the relative viability in the assay with Tosedostat + Navitoclax (first compound 0.2 µM) was found to be 0.875; with Tosedostat + Navitoclax (first compound 0.6325 µM), 0.585; with Tosedostat + Navitoclax (first compound 2 µM) it was 0.603.

As for SW 1573, the relative viability in assay [1] (first compound 0.253 µM) was determined as 0.99; in assay [1] (first compound 0.8 µM), 0.86; in assay [1] (first compound 2.53 µM) it was 0.909; in assay [1] (first compound 8 µM), 0.569; in the assay with Tosedostat + Navitoclax (first compound 0.02 µM) it was 1.06; in the assay with Tosedostat + Navitoclax (first compound 0.06325 µM), 1.05. The relative viability came to 1.06 with Tosedostat + Navitoclax (first compound 0.2 µM), 0.796 with Tosedostat + Navitoclax (first compound 0.6325 µM) and 0.959 in the assay with Tosedostat + Navitoclax (first compound 2 µM).

On to CAL-12T, for which the relative viability in assay [1] (first compound 0.253 µM) amounted to 0.965; in assay [1] (first compound 0.8 µM), 0.964; in assay [1] (first compound 2.53 µM) it was 0.879; in assay [1] (first compound 8 µM), 0.777; with Tosedostat + Navitoclax (first compound 0.02 µM), 1.27; in the assay with Tosedostat + Navitoclax (first compound 0.06325 µM), 1.13. Also, the relative viability is 1.19 in the assay with Tosedostat + Navitoclax (first compound 0.2 µM), 1.16 in the assay with Tosedostat + Navitoclax (first compound 0.6325 µM) and 0.965 with Tosedostat + Navitoclax (first compound 2 µM).

For EBC-1, the relative viability in assay [1] (first compound 0.253 µM) was found to be 0.0917; in assay [1] (first compound 0.8 µM), 0.0957; in assay [1] (first compound 2.53 µM) it was 0.103; in assay [1] (first compound 8 µM) it was 0.0946; with Tosedostat + Navitoclax (first compound 0.02 µM) it was 0.42; with Tosedostat + Navitoclax (first compound 0.06325 µM), 0.473. For the same cell line, the results for the relative viability with Tosedostat + Navitoclax (first compound 0.2 µM), in the assay with Tosedostat + Navitoclax (first compound 0.6325 µM) and with Tosedostat + Navitoclax (first compound 2 µM) were 0.423, 0.356 and 0.305, respectively.
